# Assay results reported in patent US11382892B2, “Method for administration” (Hoffmann-La Roche Inc., priority 2012, dated 2022).
# Where “and” joins values, the source holds several entries; their conditions need not be identical. Equal entries are not always repeated.
# Key:
# [1] = tested on: human osteosarcoma cancer xenograft model SJSA1; experiment: Antitumor activity (tumor volume, TGI, regression) in SJSA1 xenograft; type: in vivo, mice; conditions: for Full Regression / Partial Regression: 10 animals per group
# Excerpt: Efficacy data was graphically represented as the mean tumor volume*standard error of the mean (SEM). In addition, tumor volumes of treated groups were presented as percentages of tumor volumes of the control groups (% T/C), using the formula: 100×((T−T0)/(C−C0)), where T represented mean tumor volume of a treated group on a specific day during the experiment, T0 represented mean tumor volume of the same […] group on the first day of treatment; C represented mean tumor volume of a control group on the specific day during the experiment, and C0 represented mean tumor volume of the same […] group on the first day of treatment.
# Tumor volume (in cubic millimeters) was calculated using the ellipsoid formula: (D×(d^2))/2, where “D” represents the large diameter of the tumor and “d” represents the small diameter. In some cases, tumor regression and/or percent change in tumor volume was calculated using the formula: ((T−T0)/T0)×100, where ‘T’ represents mean tumor volume of the treated group at a particular day, and ‘T0’ represents mean tumor volume of the same treated group at initiation of treatment.
# All dose levels are reported as the actual dosage of Compound A rather than including drug plus polymer.
# Female athymic Crl:NU-Foxn1nu mice (10/group), obtained from Charles River Laboratories (Wilmington, Del.) were utilized when they were approximately 10-12 weeks of age and weighed 23-25 g. The health of the mice was assessed daily by gross observation and analyses of blood samples taken from sentinel animals housed on shared shelf racks. All animals were allowed to acclimate and recover from any shipping-related stress for a minimum of 72 hours prior to experimental use. Autoclaved water and irradiated food (5058-ms Pico Lab mouse chow, Purina Mills, Richmond, Ind.) were provided ad libitum, and the animals were maintained on a 12 hour light and dark cycle. Cages, bedding and water bottles were autoclaved before use and changed weekly. All animal experiments were conducted in accordance with the Guide for the Care and Use of Laboratory Animals, local regulations, and protocols approved by the Roche Animal Care and Use Committee in an AAALAC accredited facility.
# SJSA cells (ATCC) were maintained in RPMI 1640+10% (v/v) heat-inactivated FBS+i % (v/v) […] L-glutamine. Each mouse received 5×10^6 cells in a 1:1 mixture of phosphate buffered saline and Matrigel in a total volume of 0.2 ml. Cells were implanted subcutaneously in the right flank using a 1 cc syringe and a 26 gauge needle.
# Treatment duration was 2-4 weeks. Dates of tumor implant, treatment initiation (study start date), and termination of treatment (study end date) can be found in Table 6 below. The starting tumor volume for this study was about 220 mm^3. Tumor volumes and animal body weights were measured three times per week and animals were monitored for clinical signs daily.
# [2] = tested on: TUNEL + cells; experiment: TUNEL assay in patient tumor biopsy cells; type: in vivo, human; conditions: for TUNEL + cells (mm2) Average FCBL: cohort average; for TUNEL + cells (mm2) Median FCBL: cohort median; for TUNEL + cells (mm2) FCBL: individual patients, tumor biopsy vs baseline
# Procedure: The 10 mg tablets contain hypromellose acetate succinate, mannitol, microcrystalline cellulose, croscarmellose sodium, colloidal silicon dioxide, and magnesium stearate. The film-coat consists of hypromellose, titanium dioxide, talc, triacetin, iron oxide yellow, and iron oxide red. The 50 mg, 200 mg, and 400 mg film coated tablets contain the excipients hypromellose acetate succinate, croscarmellose sodium, colloidal silicon dioxide, and magnesium stearate. The film-coat consists of polyvinyl alcohol, titanium dioxide, polyethylene glycol, talc, iron oxide yellow, iron oxide red, and iron oxide black.
# Tumor biopsies were collected at baseline and cycle 1, day 5±2.
# Tumor biopsy cells were analyzed via TUNEL (terminal deoxynucleotidyl transferase dUTP nick end labeling) to determine cell apoptosis. TUNEL is a common method for detecting DNA fragmentation that results from apoptotic signaling cascades. The assay relies on the presence of nicks in the DNA which can be identified by terminal deoxynucleotidyl transferase or TdT, an enzyme that will catalyze the addition of dUTPs that are secondarily labeled with a marker.
# [3] = 100 mg/kg QD po 2 on/12 off x 2
# [4] = 200 mg/kg (two 100 mg/kg doses 8 hr apart) 1x/wk po
smiles,measurement,setting,value
"COc1cc(C(=O)O)ccc1NC(=O)[C@@H]1N[C@@H](CC(C)(C)C)[C@](C#N)(c2ccc(Cl)cc2F)[C@H]1c1cccc(Cl)c1F [Compound A, 4-{[(2R,3S,4R,5S)-4-(4-Chloro-2-fluoro-phenyl)-3-(3-chloro-2-fluoro-phenyl)-4-cyano-5-(2,2-dimethyl-propyl)-pyrrolidine-2-carbonyl]-amino}-3-methoxy-benzoic acid]",% Inhibition end of study Day: 32,[1]; 7.5 mg/kg QD po,66%
same,% T/C End of Study Day: 32,[1]; 7.5 mg/kg QD po,34%
same,Mean Tumor Volume (mm3) End Study Day: 32,[1]; 7.5 mg/kg QD po,18.01 mm3
same,Full Regression,[1]; 7.5 mg/kg QD po,0
same,Partial Regression,[1]; 7.5 mg/kg QD po,0
same,% Inhibition end of study Day: 32,[1]; 15 mg/kg QD po,79%
same,% T/C End of Study Day: 32,[1]; 15 mg/kg QD po,21%
same,Mean Tumor Volume (mm3) End Study Day: 32,[1]; 15 mg/kg QD po,16.42 mm3
same,Full Regression,[1]; 15 mg/kg QD po,0
same,Partial Regression,[1]; 15 mg/kg QD po,0
same,% Inhibition end of study Day: 32,[1]; 20 mg/kg QD po 20 on/8 off,98%
same,% T/C End of Study Day: 32,[1]; 20 mg/kg QD po 20 on/8 off,2%
same,Mean Tumor Volume (mm3) End Study Day: 32,[1]; 20 mg/kg QD po 20 on/8 off,315.19 mm3
same,Full Regression,[1]; 20 mg/kg QD po 20 on/8 off,0
same,Partial Regression,[1]; 20 mg/kg QD po 20 on/8 off,5
same,% Inhibition end of study Day: 32,[1]; 30 mg/kg QD po,regression
same,% T/C End of Study Day: 32,[1]; 30 mg/kg QD po,−1%
same,Average % Regression per Group,[1]; 30 mg/kg QD po,13%
same,Mean Tumor Volume (mm3) End Study Day: 32,[1]; 30 mg/kg QD po,19.35 mm3
same,Full Regression,[1]; 30 mg/kg QD po,0
same,Partial Regression,[1]; 30 mg/kg QD po,7
same,% Inhibition end of study Day: 32,[1]; 50 mg/kg 1x/wk po,57%
same,% T/C End of Study Day: 32,[1]; 50 mg/kg 1x/wk po,43%
same,Mean Tumor Volume (mm3) End Study Day: 32,[1]; 50 mg/kg 1x/wk po,22.66 mm3
same,Full Regression,[1]; 50 mg/kg 1x/wk po,0
same,Partial Regression,[1]; 50 mg/kg 1x/wk po,0
same,% Inhibition end of study Day: 32,[1]; 50 mg/kg QD po 2 on/5 off x 4,99%
same,% T/C End of Study Day: 32,[1]; 50 mg/kg QD po 2 on/5 off x 4,1%
same,Mean Tumor Volume (mm3) End Study Day: 32,[1]; 50 mg/kg QD po 2 on/5 off x 4,257.29 mm3
same,Full Regression,[1]; 50 mg/kg QD po 2 on/5 off x 4,0
same,Partial Regression,[1]; 50 mg/kg QD po 2 on/5 off x 4,3
same,% Inhibition end of study Day: 32,[1]; 50 mg/kg QD po 4 on/10 off x 2,99%
same,% T/C End of Study Day: 32,[1]; 50 mg/kg QD po 4 on/10 off x 2,1%
same,Mean Tumor Volume (mm3) End Study Day: 32,[1]; 50 mg/kg QD po 4 on/10 off x 2,244.70 mm3
same,Full Regression,[1]; 50 mg/kg QD po 4 on/10 off x 2,0
same,Partial Regression,[1]; 50 mg/kg QD po 4 on/10 off x 2,6
same,% Inhibition end of study Day: 32,[1]; 80 mg/kg QD po 5 on/23 off,regression
same,% T/C End of Study Day: 32,[1]; 80 mg/kg QD po 5 on/23 off,−2%
same,Average % Regression per Group,[1]; 80 mg/kg QD po 5 on/23 off,35%
same,Mean Tumor Volume (mm3) End Study Day: 32,[1]; 80 mg/kg QD po 5 on/23 off,128.05 mm3
same,Full Regression,[1]; 80 mg/kg QD po 5 on/23 off,2
same,Partial Regression,[1]; 80 mg/kg QD po 5 on/23 off,6
same,% Inhibition end of study Day: 32,[1]; 100 mg/kg 1x/wk po,94%
same,% T/C End of Study Day: 32,[1]; 100 mg/kg 1x/wk po,6%
same,Mean Tumor Volume (mm3) End Study Day: 32,[1]; 100 mg/kg 1x/wk po,474.73 mm3
same,Full Regression,[1]; 100 mg/kg 1x/wk po,0
same,Partial Regression,[1]; 100 mg/kg 1x/wk po,1
same,% Inhibition end of study Day: 32,[1]; 100 mg/kg QD po 2 on/5 off x 4,regression
same,% T/C End of Study Day: 32,[1]; 100 mg/kg QD po 2 on/5 off x 4,−2%
same,Average % Regression per Group,[1]; 100 mg/kg QD po 2 on/5 off x 4,47%
same,Mean Tumor Volume (mm3) End Study Day: 32,[1]; 100 mg/kg QD po 2 on/5 off x 4,25.68 mm3
same,Full Regression,[1]; 100 mg/kg QD po 2 on/5 off x 4,0
same,Partial Regression,[1]; 100 mg/kg QD po 2 on/5 off x 4,9
same,% Inhibition end of study Day: 32,[1]; [3],regression
same,% T/C End of Study Day: 32,[1]; [3],0%
same,Average % Regression per Group,[1]; [3],11%
same,Mean Tumor Volume (mm3) End Study Day: 32,[1]; [3],179.88 mm3
same,Full Regression,[1]; [3],0
same,Partial Regression,[1]; [3],7
same,% Inhibition end of study Day: 32,[1]; [4],regression
same,% T/C End of Study Day: 32,[1]; [4],−1%
same,Average % Regression per Group,[1]; [4],29%
same,Mean Tumor Volume (mm3) End Study Day: 32,[1]; [4],158.95 mm3
same,Full Regression,[1]; [4],0
same,Partial Regression,[1]; [4],7
same,growth inhibitory activity (FIG. 1),[1]; 5 day on/23 day off treatment schedule,good growth inhibitory activity
same,TUNEL + cells (mm2) Average FCBL,[2]; BM-A1 800 mg bid Qwk × 3,1.2
same,TUNEL + cells (mm2) Median FCBL,[2]; BM-A1 800 mg bid Qwk × 3,0.8
same,TUNEL + cells (mm2) FCBL,[2]; BM-A1 800 mg bid Qwk × 3,0.8 (2×) and 3.2 and 0.1
same,TUNEL + cells (mm2) Average FCBL,[2]; BM-A2 1200 mg bid Qwk × 3,2.7
same,TUNEL + cells (mm2) Median FCBL,[2]; BM-A2 1200 mg bid Qwk × 3,2.3
same,TUNEL + cells (mm2) FCBL,[2]; BM-A2 1200 mg bid Qwk × 3,5.3 and 2.3 and 0.9 and 1.6 and 3.3
same,TUNEL + cells (mm2) Average FCBL,[2]; BM-B1 400 mg bid × 5 d,1.7
same,TUNEL + cells (mm2) Median FCBL,[2]; BM-B1 400 mg bid × 5 d,1.8
same,TUNEL + cells (mm2) FCBL,[2]; BM-B1 400 mg bid × 5 d,0.9 (2×) and 1.8 (2×) and 3.2
same,TUNEL + cells (mm2) Average FCBL,[2]; BM-B2 500 mg bid × 3 d,1.7
same,TUNEL + cells (mm2) Median FCBL,[2]; BM-B2 500 mg bid × 3 d,0.9
same,TUNEL + cells (mm2) FCBL,[2]; BM-B2 500 mg bid × 3 d,0.5 and 0.4 and 0.6 and 5.3 and 1.2 and 1.9
same,TUNEL + cells (mm2) Average FCBL,[2]; BM-B3 500 mg qd × 5 d,1.2
same,TUNEL + cells (mm2) Median FCBL,[2]; BM-B3 500 mg qd × 5 d,1.2
same,TUNEL + cells (mm2) FCBL,[2]; BM-B3 500 mg qd × 5 d,0.6 and 1.7 and 1.2
same,apoptosis by TUNEL,[2]; doses and schedules of Table 10,increase in apoptosis
